Test results published in patent publication US8871735B2, “Methods and compositions for providing cardiac protection” (University of Medicine and Dentistry of New Jersey, priority 2008, dated 2014).
“Also recorded” adds a separate entry of the source. Where two headings read alike, the source gives them in different places.

What was measured:
[1] = system: mice, chronic ISO infusion; assay: Treadmill exercise tolerance after chronic ISO; type: in vivo, mouse
Experimental: Treadmill exercise tolerance was performed as previously described. One week after pump implantation, pumps were removed under anesthesia. The next day after removal, mice were placed on a custom-built four-lane treadmill with an infrared detection system above the shock stimulus at a starting speed of 2 m/min. Every two minutes, the speed was increased by 4 m/min for 16 min or until the mouse could no longer run.

[2] = system: H9C2 cells; assay: cAMP accumulation in H9C2 cells; type: cell-based; settings: 5 μM ISO, 3 minutes, 10 μM drug
Text: […] Fludarabine ((+)-2-Fluoro-9-(5-O-phosphono-β-D-arabinofuranosyl)-9H-purin-6-amine) and Cladribine (2-chloro-2′-deoxyadenosine) are anti-cancer drugs, Adefovir (Bis(2,2-dimethylpropanoyloxymethyl)[2-(6-amino-9H-purin-9-yl)ethoxymethyl]phosphonate) and Zidovudine are anti-HIV drugs. Zidovudine-TP is a metabolite of zidovudine which inhibits virus replication. TP; triphosphate. 3-Deazaadenosine, Formycin A (7-Amino-3-(β-D-ribofuranosyl)-1H-pyrazolo[4,3-d]pyrimidine), 2-Far (2-Fluoroadenosine), formycin A ((2S,3R,4S,5R)-2-(7-amino-2H-pyrazolo[5,4-e]pyramidin-3-yl-5-(hydroxymeth-yl)oxolane-3,4-diol), 2-FD (2-Fluoro-2′-deoxyadenosine) and 2′5′ ddAdo (2′5′-dideoxyadenosine) are experimental drugs.
Mice were anesthetized with 2.5% tribromoethanol (0.010 to 0.015 mL per gram of body weight) injected intraperitoneally, and echocardiography was performed with ultrasonography (ACUSON Sequoia C256, Siemens Medical Solutions, Malvern, Pa.). For acute injection of isoproterenol, forskolin and milrinon, a PE-10 catheter was inserted into the right jugular vein, and drugs were injected at the rate of 1 μl/s. cAMP accumulation assay in H9C2 cells, a cardiac myoblast cell line, was examined as previously described.

[3] = system: Yorkshire pigs, CAO / CAR; assay: Pig ischemia and reperfusion model; type: in vivo
Experimental: Yorkshire pigs were under anesthesia and instrumented in accordance with established procedures. After 4 days of recovery, the pigs were subjected to ischemia and reperfusion also in accordance with established procedures. At 3 hours of coronary artery reperfusion, the animals were sacrificed and the infarct size was measures with TTC staining.

[4] = system: C57BL/6 mice, CAO 30 min / CAR; assay: Mouse ischemia and reperfusion model; type: in vivo
Experimental: Mice were divided into three different groups. Group I was administered AC5 inhibitor chronically for three weeks prior to CAO for 30 minutes followed by CAR for 24 hours. Group II was administered the AC5 inhibitor by i.v. infusion for 5 minutes immediately prior to CAO for 30 minutes followed by CAR for 24 hours. Group III was administered the AC5 inhibitor by i.v. infusion for 5 minutes immediately following CAO for 30 minutes and during CAR for 24 hours. Vehicle controls were included for all three treatment groups.
3-4 month old male C57BL/6 mice purchased from Jackson Laboratory were anesthetized by an injection of 2% 2,2,2-tribromomethanol (0.66 mg/g i.p.; Aldrich Chemical, St. Louis, Mo.). The mice were then orally intubated and mechanically ventilated. The heart was accessed via a thoracotomy at the fourth intercostals space and 7-0 silk suture passed under the left anterior descending coronary artery (LAD) at the point where it emerged from under the left atrial flap. Myocardial ischemia was achieved by occluding the LAD against a 22-gauge J-shaped stainless steel probe and verified by visually noting the regional akinesis and blanching of the left ventrical. The chest was closed in layers, with the long end of the probe remaining outside the chest wall, allowing the animal to be removed from the ventilator. After 30 min. of ischemia, reperfusion was initiated by carefully pulling the probe out form the ligature and then removing it from the chest cavity. Following the surgical procedure, the mouse was allowed to recover on a warmed surface, with supplemental oxygen delivered from a nose cone. I/R were verified by three lead electrocardiograms, which were obtained preoperatively, at the end of the ischemic interval and immediately after the initiation of reperfusion. Mice fully recovered from the surgical procedure were returned to standard animal housing conditions. The mice were under either 24 hrs of reperfusion followed by sacrifice and dual staining of the heart with TTC and Alcian Blue or kept for 4 weeks to study the heart failure progression. For the long term study post ischemia and reperfusion, the animals underwent echocardiography recording at 4 days, 2 weeks and 4 weeks after reperfusion.

[5] = system: cardiac myocytes; assay: ISO-stimulated cAMP accumulation in cultured cardiac myocytes; type: cell-based, mouse; settings: 10 μM compound
[6] = molecular target: T1, AC5 (Mus musculus, UniProt P84309); assay: Forskolin-stimulated cAMP production in heart membrane preparations from AC5Tg; settings: forskolin 50 μM
T1 sequence (P84309 whole entry): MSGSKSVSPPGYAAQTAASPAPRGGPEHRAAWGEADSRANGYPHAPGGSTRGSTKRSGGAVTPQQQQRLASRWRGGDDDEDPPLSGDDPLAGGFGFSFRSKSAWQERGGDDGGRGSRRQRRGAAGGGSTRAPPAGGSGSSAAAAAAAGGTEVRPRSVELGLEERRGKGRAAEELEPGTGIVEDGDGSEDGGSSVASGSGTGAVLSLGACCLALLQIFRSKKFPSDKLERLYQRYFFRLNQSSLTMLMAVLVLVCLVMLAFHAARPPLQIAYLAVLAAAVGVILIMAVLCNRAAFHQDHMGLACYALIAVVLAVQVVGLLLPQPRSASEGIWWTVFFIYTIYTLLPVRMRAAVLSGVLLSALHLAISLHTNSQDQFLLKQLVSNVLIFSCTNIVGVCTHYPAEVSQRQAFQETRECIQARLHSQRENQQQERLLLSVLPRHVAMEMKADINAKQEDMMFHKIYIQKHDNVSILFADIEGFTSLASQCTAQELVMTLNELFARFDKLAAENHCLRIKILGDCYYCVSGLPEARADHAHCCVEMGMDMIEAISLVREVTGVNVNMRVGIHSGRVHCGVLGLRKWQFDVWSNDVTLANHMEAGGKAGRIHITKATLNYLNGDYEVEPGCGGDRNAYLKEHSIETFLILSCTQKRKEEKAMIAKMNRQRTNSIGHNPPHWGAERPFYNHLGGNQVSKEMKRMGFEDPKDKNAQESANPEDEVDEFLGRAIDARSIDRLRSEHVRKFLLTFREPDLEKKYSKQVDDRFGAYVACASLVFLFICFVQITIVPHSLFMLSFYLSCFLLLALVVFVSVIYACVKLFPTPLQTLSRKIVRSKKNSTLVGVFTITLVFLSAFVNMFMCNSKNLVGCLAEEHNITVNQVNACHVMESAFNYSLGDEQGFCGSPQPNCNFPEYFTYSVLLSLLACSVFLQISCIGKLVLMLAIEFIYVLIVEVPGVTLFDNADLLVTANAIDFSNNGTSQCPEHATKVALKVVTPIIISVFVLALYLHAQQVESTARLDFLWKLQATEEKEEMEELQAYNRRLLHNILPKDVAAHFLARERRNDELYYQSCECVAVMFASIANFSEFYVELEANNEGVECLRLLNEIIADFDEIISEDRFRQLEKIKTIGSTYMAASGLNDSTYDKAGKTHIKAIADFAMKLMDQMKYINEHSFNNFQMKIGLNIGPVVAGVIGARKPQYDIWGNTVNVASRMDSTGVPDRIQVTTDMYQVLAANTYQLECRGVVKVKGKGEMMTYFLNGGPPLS
Experimental: (§1) Hearts and striatum were dissected from the mice and membrane preparations were made as previously described. This crude membrane preparation was used in the AC assay. AC activity was measured by a modification of the method of Salomon et al. as previously described. […] Double-reciprocal plots were examined as previously described.

[7] = Water solubility; type: physicochemical
[8] = molecular target: T1, AC5; assay: Acute ISO, milrinone or carbachol challenge in mice chronically infused with Ara-Ade; type: in vivo
[9] = system: AC5; assay: as above; type: in vivo, mouse; settings: 0.05 μg/kg IV ISO, AC5Tg
[10] = system: mice after coronary occlusion; assay: Coronary occlusion (post-MI) survival and echocardiography; type: in vivo, mouse
Experimental: Ara-Ade (50 mg/kg/day) was chronically infused with mini-osmotic pumps implanted subcutaneously 2-3 days before the coronary occlusion. […] (b) Echocardiography was performed at 16 days after coronary occlusion.

[11] = system: ERK/MEK/Bcl-2 pathway; assay: Western blot of hearts after chronic ISO infusion; type: in vivo, mouse
Experimental: The activities of MEK1 and ERK1/2 signaling pathway were examined by measuring the phosphorylated and total forms.
Western blotting was conducted with commercially available antibodies, except for type 5 and type 6 AC. Western blotting for type 5 and 6 AC was performed as previously described. Protein expression was quantified by densitometry.

[12] = cited from earlier work
[13] = system: AC6; assay: Forskolin-stimulated cAMP production in heart membrane preparations from AC6Tg; type: biochemical, mouse; settings: forskolin 50 μM
[14] = molecular target: type 5 AC (Homo sapiens, UniProt O95622); assay: Double-reciprocal plots of type 5 AC catalytic activity against ATP
type 5 AC, sequence (O95622 whole entry): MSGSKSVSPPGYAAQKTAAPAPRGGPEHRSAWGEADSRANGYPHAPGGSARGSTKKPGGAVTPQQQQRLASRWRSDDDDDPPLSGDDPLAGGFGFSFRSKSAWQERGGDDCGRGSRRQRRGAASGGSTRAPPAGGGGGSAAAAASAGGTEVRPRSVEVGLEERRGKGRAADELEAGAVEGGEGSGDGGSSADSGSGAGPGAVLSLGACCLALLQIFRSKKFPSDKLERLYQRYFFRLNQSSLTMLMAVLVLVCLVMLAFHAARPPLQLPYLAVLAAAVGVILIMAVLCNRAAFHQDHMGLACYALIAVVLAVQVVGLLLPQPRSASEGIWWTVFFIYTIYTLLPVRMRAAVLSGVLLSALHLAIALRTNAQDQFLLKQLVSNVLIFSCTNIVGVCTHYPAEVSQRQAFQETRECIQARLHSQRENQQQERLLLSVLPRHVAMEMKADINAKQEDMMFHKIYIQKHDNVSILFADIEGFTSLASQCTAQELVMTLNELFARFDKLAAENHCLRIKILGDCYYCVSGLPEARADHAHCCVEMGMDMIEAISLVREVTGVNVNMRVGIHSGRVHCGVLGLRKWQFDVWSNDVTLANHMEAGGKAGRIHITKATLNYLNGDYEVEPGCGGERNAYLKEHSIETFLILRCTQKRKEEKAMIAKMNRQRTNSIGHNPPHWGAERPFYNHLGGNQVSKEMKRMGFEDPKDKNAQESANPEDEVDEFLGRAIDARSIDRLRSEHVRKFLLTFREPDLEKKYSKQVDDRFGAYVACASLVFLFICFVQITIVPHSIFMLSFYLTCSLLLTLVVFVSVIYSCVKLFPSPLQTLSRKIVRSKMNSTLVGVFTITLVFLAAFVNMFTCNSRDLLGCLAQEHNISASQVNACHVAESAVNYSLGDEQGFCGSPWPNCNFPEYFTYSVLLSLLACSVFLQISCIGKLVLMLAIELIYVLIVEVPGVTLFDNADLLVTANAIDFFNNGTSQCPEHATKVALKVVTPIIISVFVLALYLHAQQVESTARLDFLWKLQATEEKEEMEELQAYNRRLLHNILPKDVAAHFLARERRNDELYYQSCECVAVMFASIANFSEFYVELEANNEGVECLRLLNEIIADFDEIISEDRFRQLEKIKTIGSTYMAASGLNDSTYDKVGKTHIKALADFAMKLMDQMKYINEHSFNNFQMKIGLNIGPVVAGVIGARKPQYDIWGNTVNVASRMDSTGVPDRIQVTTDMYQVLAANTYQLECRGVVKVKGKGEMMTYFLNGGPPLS
Experimental: as §1

[15] = system: C57Bl/6 mice motor function; assay: Rotarod performance test and pole test; type: in vivo, mouse; settings: mouse
Experimental: In C57Bl/6 mice, Ara-Ade was chronically infused with an osmotic mini-pump at the indicated doses for 5 days. a) Each mouse was placed on a rod subjected to evaluate Rotarod performance. Mice were left for 1 min on the rod for habituation. The rod rotated gradually increasing from 4 to 40 rpm over the course of 5 min, and the time that mice could stay without failing was recorded. Five trials were conducted for each individual 10-25 min apart. As a positive control, 1-methyl 4-phenyl 1,2,3,6-tetrahydropyridine (MPTP) was intraperitoneally injected for the indicated dose for 5 days. *, p<0.01 relative to vehicle. #, p<0.05 relative to vehicle. n=6-7. b) To evaluate bradykinesia, a pole test was performed. Mice were placed head upward on the top of a rough surfaced pole that was wrapped with gauze to prevent slipping. The time until the mouse turned completely downward (open bars, TTURN) and the time until it climbed down to the floor (closed bars, TLA) were measured.
Four days after the implantation, Rotarod performance test and pole test were examined as previously described. For MPTP injection (1-methyl 4-phenyl 1,2,3,6-tetrahydropyridine), mice were injected intraperitoneally (i.p.) with 0.1 mL of PBS or MPTP dissolved in PBS at 24-hour intervals for 5 days. The daily dose of MPTP was 30 mg/kg. […]

[16] = system: cardiac myocytes; assay: ISO-induced apoptosis in cultured cardiac myocytes (DNA fragmentation ELISA); type: cell-based; settings: 100 μM ISO, 48 h
Experimental: Cultured cardiac myocytes were incubated with 100 μM ISO in the presence or absence of AC5 inhibitors at the indicated concentrations for 48 h.

[17] = 30 min CAO, 24 hr CAR, vehicle 36%

Nc1ncnc2c1ncn2[C@@H]1O[C@H](CO)[C@@H](O)[C@@H]1O [Ara-Ade, 9-β-D-arabinofuranosyladenine]
maximum velocity in the treadmill test [1]: rescued ISO-induced decrease in the maximum velocity | inhibition of cAMP accumulation in H9C2 cells [2]: slight inhibition | infarct size in chronically instrumented conscious pigs ([3]; delivered after CAR): reduced infarct size | reactive hyperemia in pigs ([3]; pig, in vivo): inhibited reactive hyperemia | arterial pressure and heart rate [4]: did not reduce arterial pressure and reflexly increase heart rate | infarct size, drug administered before CAO or CAR [4, 17]: 21% | infarct size, drug delivered at CAR [4, 17]: 16% | development of heart failure after ischemia and reperfusion ([4]; i.v. infusion after CAO, during or after reperfusion): prevented development of heart failure | decrease in ISO-induced cAMP production / accumulation in cultured cardiac myocytes [5]: 20% | inhibition of cAMP production, heart membrane preparation from AC5Tg [6]: inhibited cAMP production | water solubility [7]: poorly water-soluble | difference in LVEF between vehicle and Ara-Ade in WT ([8]; 0.05 μg/kg IV ISO, WT): no significant difference | LVEF after ISO vs vehicle ([8]; Ara-Ade 20 mg/kg/day chronically infused, 0.25 μg/kg IV ISO): lower | LVEF elevation by milrinone, vehicle vs Ara-Ade group ([8]; milrinone infusion): no significant difference | decrease in HR by carbachol ([8]; vehicle vs Ara-Ade): greater in vehicle than Ara-Ade | difference in LVEF between vehicle and Ara-Ade in AC5Tg [9]: significant | LVEF after MI ([10]; 16 days after coronary occlusion): prevented decrease in LVEF | survival rate after coronary occlusion ([10]; Ara-Ade 50 mg/kg/day from 2-3 days before occlusion, chi-square at 16 days): significant increase in survival rate | phosphorylation of Bcl-2 [11]: significantly increased | phosphorylation of ERK1/2 and MEK [11]: increased | Cmax ([12]; 10 mg/kg, intravenously infusion for 30 min, read-out: Cmax in human): 4.8 µM | Cmax ([12]; human, intravenous infusion 10 mg/kg, read-out: plasma Cmax): 4.8 µM | inhibition of cAMP production, heart membrane preparation from AC6Tg [13]: little inhibitory effect | mode of inhibition with respect to ATP [14]: non-competitive; also recorded: un-competitive or non-competitive | BBB-permeability (concluded from motor tests) [15]: little BBB-permeability | ISO-induced apoptosis in cultured cardiac myocytes [16]: completely abolished | effective concentration in inhibiting apoptosis ([16]; FIG. 3d): 10 µM
